# “And” between values parts separate entries of the source, which are not always exact repeats. Equal entries are not always repeated. “Also recorded” adds a separate entry of the source.
# Columns and labels:
# p53 level in H460 cells = assay: p53 induction by immunoblotting (IB) in H460 cells; assay type: cell-based, human
# [1] = tested on: p53 level in HCT116^+/+ cells; assay: p53 induction by immunoblotting (IB) in HCT116^+/+ cells; assay type: cell-based, human
# Method: (§1) EC90 values were calculated from the EC50 and Hill slope by a web-based calculator: http://www.graphpad.com/quickcalcs/Ecanything1.cfm.
# [2] = tested on: p53 level in H460 and HCT116^+/+ cells; assay: p53 induction by immunoblotting (IB), statement does not separate the cell lines; assay type: cell-based, human; settings: 18 hrs, 0.5, 2, 10 µM
# Source text: (A–B) Initial Inauhzin analogs were purchased and tested the activity on H460 and HCT116^+/+ by immunoblotting (IB). […]
# H460 cells [3] = assay: 3-day WST-8 cell growth inhibition assay, H460; assay type: cell-based, human; settings: Homo sapiens, NCI-H460, calculated from EC50 and Hill slope (GraphPad web calculator); read-out: EC90, cell growth inhibition, H460 p53 wild type
# Method: as §1
# HCT116^+/+ cells = assay: 3-day WST-8 cell growth inhibition assay, HCT116^+/+; assay type: cell-based, human; settings: for EC90 / EC50: Homo sapiens; for EC90: HCT-116, calculated from EC50 and Hill slope, read-out: EC90, cell growth inhibition, HCT116^+/+ p53 wild type; for EC50: HCT-116, 72 h WST-8, average of triplicates, highest concentration 50 µM, read-out: EC50, cell growth inhibition, HCT116^+/+ p53 wild type
# Method: as §1
# H460 cells [4] = assay: 3-day WST-8 cell growth inhibition assay, H460; assay type: cell-based, human; settings: for EC50: Homo sapiens, NCI-H460, 72 h WST-8, average of triplicates, highest concentration 50 µM, read-out: EC50, cell growth inhibition, H460 p53 wild type
# H1299 cells = assay: 3-day WST-8 cell growth inhibition assay, H1299 (p53 null); assay type: cell-based, human
# Method: as §1
# HCT116^−/− cells [5] = assay: 3-day WST-8 cell growth inhibition assay, HCT116^−/− (p53 null); assay type: cell-based; settings: Homo sapiens, HCT-116, calculated from EC50 and Hill slope
# Method: as §1
# WI-38 cells = assay: WST-8 cytotoxicity assay on normal fibroblasts WI-38; assay type: cell-based, human
# Method: as §1
# HCT116^−/− cells [6] = assay: 3-day WST-8 cell growth inhibition assay, HCT116^−/− (p53 null); assay type: cell-based, human
# [7] = 2 µM, 18 hrs, IB normalized to GAPDH, compared to 2 µM INZ
EC90 (H460 cells [3]) [µM],EC90 (HCT116^+/+ cells) [µM],EC50 (HCT116^+/+ cells) [µM],EC50 (H460 cells [4]) [µM],"EC90 (H1299 cells; Homo sapiens, NCI-H1299, calculated from EC50 and Hill slope) [µM]","EC50 (H1299 cells; Homo sapiens, NCI-H1299, 72 h WST-8, average of triplicates, highest concentration 100 µM) [µM]",EC50 on H1299 fold higher than on H460 cells (H1299 cells; p53-null H1299 vs p53-containing H460),EC90 (HCT116^−/− cells [5]) [µM],"EC50 (HCT116^−/− cells [6]; Homo sapiens, HCT-116, 72 h WST-8, average of triplicates, highest concentration 100 µM) [µM]",SMILES,p53 induction in H460 cells (p53 level in H460 cells; [7]) [%],"p53 induction in HCT116^+/+ cells [1, 7] [%]",p53 induction / activation by synthetic analogs [2],"p53 induction / activation in H460 cells (p53 level in H460 cells; IB, 18 hrs, 0.5, 2, 10 µM)","p53 induction / activation in HCT116^+/+ cells ([1]; IB, 18 hrs, 0.5, 2, 10 µM, p53 acetylation (lys382), p53 level, MDM2)",fold higher potency than INZ in growth inhibition of HCT116^+/+ cells (HCT116^+/+ cells; EC50 compared with INZ),effect on p53-null H1299 cells compared with p53-containing cells (H1299 cells; in vitro cytotoxicity),"EC50 (WI-38 cells; Homo sapiens, WI-38, highest concentration tested 50 µM, n.d. = not be able to be determined, read-out: EC50, normal cells WI-38 p53 wild type) [µM]","toxicity to normal human WI-38 cells (WI-38 cells; normal human fibroblasts, p53-containing)",fold higher potency than INZ in growth inhibition of H460 cells (H460 cells [4]; EC50 compared with INZ),effect on p53-null HCT116^−/− cells compared with p53-containing cells (HCT116^−/− cells [6]; in vitro cytotoxicity)
,,,,,,,,,"CCC(Sc1nnc2c(n1)[nH]c1ccccc12)C(=O)N1c2ccccc2Sc2ccc(OC)cc21 (stereo not shown) [Compound 7, 2-((5H-[1,2,4]triazino[5,6-b]indol-3-yl)thio)-1-(2-methoxy-10H-phenothiazin-10-yl)butan-1-one]",< 50,< 50,remained active in p53 induction,,,,,,,,
7.5,18.3,2.5 ± 0.6,2.9 ± 0.2,,,,,,"CCC(Sc1nnc2c3ccccc3n(C(=O)CCCCC3CC4NC(=O)NC4S3)c2n1)C(=O)N1c2ccccc2Sc2ccccc21 (stereo not shown) [Compound 20, 5-(5-oxo-5-(3-((1-oxo-1-(10H-phenothiazin-10-yl)butan-2-yl)thio)-5H-[1,2,4]triazino[5,6-b]indol-5-yl)pentyl)tetrahydro-1H-thieno[2,3-d]imidazole-2(5H)-one]",,,,as effective as INZ,as effective as INZ,,,,,,
3.6,5,0.5,0.7,58.9,11.2,3–15 fold,91.7,12.8 ± 1.7,"CCC(Sc1nnc2c3ccccc3n(CCO)c2n1)C(=O)N1c2ccccc2Cc2ccccc21 (stereo not shown) [Compound 37, 1-(acridin-10(9H)-yl)-2-((5-(2-hydroxyethyl)-5H-[1,2,4]triazino[5,6-b]indol-3-yl)thio)butan-1-one]",,,much better potency than INZ; also recorded: more potent in p53 activation than their parental compound INZ,,,5 fold and 5- to 10 fold,much less effect; also recorded: much less effective,> 50,no toxicity,10 fold and 5- to 10 fold,much less effect; also recorded: much less effective

# Reference: paper PMC3480348, “Structure and Activity Analysis of Inauhzin Analogs as Novel Antitumor Compounds That Induce p53 and Inhibit Cell Growth” (PLoS ONE, 2012)
